Data reported in patent publication US9428439B2, “Hydrobenzamide derivatives as inhibitors of Hsp90” (priority 2006, dated 2016).

How the values were obtained:
[1] = system: human colon cancer cell line HCT116; assay: Anti-proliferative activity (Alamar Blue assay); assay type: cell-based; conditions: HCT-116
Protocol: The anti-proliferative activities of compounds of the invention can be determined by measuring the ability of the compounds to inhibition of cell growth in a number of cell lines such as the human colon cancer cell line HCT116. Inhibition of cell growth is measured using the Alamar Blue assay (Nociari, M. M, Shalev, A., Benias, P., Russo, C. Journal of Immunological Methods 1998, 213, 157-167). The method is based on the ability of viable cells to reduce resazurin to its fluorescent product resorufin. For each proliferation assay cells are plated onto 96 well plates and allowed to recover for 16 hours prior to the addition of inhibitor compounds for a further 72 hours. At the end of the incubation period 10% (v/v) Alamar Blue is added and incubated for a further 6 hours prior to determination of fluorescent product at […]. In the case of the non-proliferating cell assay cells are maintained at confluence for 96 hour prior to the addition of inhibitor compounds for a further 72 hours. The number of viable cells is determined by Alamar Blue assay as before. Cell lines can be obtained from the ECACC (European Collection of cell Cultures).

[2] = target: hERG (Homo sapiens, UniProt Q12809); assay: hERG activity
hERG, sequence (Q12809 whole entry, the tested form may be a part): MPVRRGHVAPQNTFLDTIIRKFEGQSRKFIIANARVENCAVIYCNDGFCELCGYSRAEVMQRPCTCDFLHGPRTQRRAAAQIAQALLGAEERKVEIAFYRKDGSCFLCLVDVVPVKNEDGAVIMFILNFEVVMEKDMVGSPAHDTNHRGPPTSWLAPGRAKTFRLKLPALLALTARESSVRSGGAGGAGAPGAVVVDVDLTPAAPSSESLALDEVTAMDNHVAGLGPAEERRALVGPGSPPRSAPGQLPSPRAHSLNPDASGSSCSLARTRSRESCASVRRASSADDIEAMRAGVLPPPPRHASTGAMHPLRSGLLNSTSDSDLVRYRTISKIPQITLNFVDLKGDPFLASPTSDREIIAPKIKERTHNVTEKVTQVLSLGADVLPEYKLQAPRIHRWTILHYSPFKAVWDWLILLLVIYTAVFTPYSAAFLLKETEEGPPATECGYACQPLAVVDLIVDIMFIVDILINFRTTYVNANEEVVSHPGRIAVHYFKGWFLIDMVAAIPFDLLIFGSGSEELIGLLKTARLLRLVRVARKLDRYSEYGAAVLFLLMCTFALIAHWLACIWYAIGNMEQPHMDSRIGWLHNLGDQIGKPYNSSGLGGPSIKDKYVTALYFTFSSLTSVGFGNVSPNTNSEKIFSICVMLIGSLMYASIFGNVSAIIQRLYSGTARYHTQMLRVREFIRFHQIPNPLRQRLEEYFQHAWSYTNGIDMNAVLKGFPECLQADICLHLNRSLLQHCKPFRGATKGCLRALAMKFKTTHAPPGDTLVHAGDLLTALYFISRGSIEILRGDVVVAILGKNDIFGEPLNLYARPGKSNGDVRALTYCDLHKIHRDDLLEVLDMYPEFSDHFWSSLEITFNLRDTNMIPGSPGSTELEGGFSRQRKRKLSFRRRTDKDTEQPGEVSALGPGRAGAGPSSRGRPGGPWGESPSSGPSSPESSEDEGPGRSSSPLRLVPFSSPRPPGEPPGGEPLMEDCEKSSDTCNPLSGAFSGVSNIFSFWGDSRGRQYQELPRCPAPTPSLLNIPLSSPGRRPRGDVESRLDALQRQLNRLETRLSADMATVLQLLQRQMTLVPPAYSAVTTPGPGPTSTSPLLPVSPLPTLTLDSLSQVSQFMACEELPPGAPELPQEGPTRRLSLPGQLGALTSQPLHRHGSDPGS

[3] = target: T1, human Hsp90α N-terminal domain (Homo sapiens, UniProt P07900); assay: Isothermal titration calorimetry (ITC); assay type: binding
T1 construct: purification of the Human Hsp90α N-terminal domain were performed according to published methods; made in house
Protocol: The ability of the compounds of the invention to bind to human Hsp90 proteins was determined using isothermal titration calorimetry. Isothermal titration calorimetry (ITC) experiments were performed with a VP-ITC titration calorimeter (Microcal Inc., Northampton, Mass., USA). Cloning, expression, and purification of the Human Hsp90α N-terminal domain were performed according to published methods (Jez, J. M. et al, Chem. […] All solutions were filtered and degassed prior to a titration being carried out. The enthalpy change resulting from each injection of ligand was obtained through integration of the calorimetric signal. Data were analysed using Origin 7.0 (Microcal Software Inc., Northampton, Mass.). Heats of dilution were estimated using the final injections of each individual titration and subtracted before data fitting. […] For weakly binding compounds a low c-value ITC method was used (Turnbull […]. Am. Chem. Soc. 2003 Dec. 3; 125(48):14859-66) in which the protein was present at 10-20 μM in the calorimetric cell and the compound concentration was 1-20 mM in the injection syringe. In this type of experiment the stoichiometry parameter (N) was locked at 1 for data fitting. […] In rare cases where compound solubility was limiting, the compound solution was placed in the calorimetric cell and titrated with protein from the injection syringe, maintaining a c-value between 5 and 1000. […]

IC50 [1]: < 100 nM
Kd [3]: < 100 nM
Compound: CC(C)c1cc(C(=O)N2Cc3ccc(CN4CCN(C)CC4)cc3C2)c(O)cc1O [Compound (1), (2,4-dihydroxy-5-isopropyl-phenyl)-[5-(4-methyl-piperazin-1-ylmethyl)-1,3-dihydro-isoindol-2-yl]-methanone]
hERG activity [2]: low hERG activity
mean IC50 value against hERG relative to the IC50 values of the compound in cellular proliferation assays [2]: greater than 30 times
IC50 ([2]; read-out: mean IC50 value against hERG): > 15000 nM
